This is an account of results in PubChem BioAssay (NCI).

In this assay the test system is P388/ADR leukemia. The assay is described as follows: NCI tumour cell line growth inhibition, 48 h.

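Results reflect a 48-hour exposure of cells in 96-well plates to compound at five concentrations. TGI: total growth inhibition.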

The compound `CC1=CCCC2C1(C)CCC(C)C2(C)Cc1cc(O)ccc1O` (configuration not stated) displayed a TGI of 13 µM.

Compound `O=C1NC2C(=CC(O)C(O)C2O)c2cc3c(cc21)OCO3` (configuration not stated) displayed a TGI of 0.714 µM.
